One data set addresses T1, hKCNQ2/3 (Homo sapiens, UniProt O43525+O43526).
T1 construct: expressed in transfected cells; host or cells: CHO
The experiment in a line: hKCNQ2/3 thallium flux assay (FLIPR). The following applies: agonistic effect, CHO cell line stably expressing hKCNQ2/3. The data set is classed as cell-based. From the text: The present disclosure also provides the following assay methods: • Assay method 1: hKCNQ2/3 thallium flux assay • Purpose of the assay: To determine the in vitro concentration-response relationship of the compounds in a CHO cell line stably expressing hKCNQ2/3 using FLIPR thallium flux assay.
CHO cells stably transfected with hKCNQ2/3.
The cell line was passaged three times a week at a split ratio of 1:2 to 1:3. When the cells grew to a confluence degree of greater than 80% in a T-75 cell flask, they were digested with 0.25% trypsin-EDTA solution for about 1 minute, and then the cells were transferred from the cell flask for passage. According to the split ratio, the cells were transferred to another T-75 cell flask containing complete cell growth culture medium. Note: In order to maintain the logarithmic growth of cells, the cell growth should be maintained in a subconfluent monolayer state. The cells were passaged every 2 to 3 days according to the cell doubling time.
• (1) Day 1, cell preparation: The cells were digested according to the above method, and the cell density and viability were determined using Cell Countess. The volume of the single-cell suspension was adjusted with complete cell growth culture medium. Then, the hKCNQ2/3_CHO cells were seeded at a density of approximately 20,000 cells/well (30 µL/well) into a PDL-precoated 384-well plate. Then, the plate was incubated at 37 °C with 5% CO2 humidified air in an incubator overnight. • (2) Day 2, compound preparation: A test compound was diluted to a storage concentration with dimethyl sulfoxide (DMSO), and stored in a freezer at -20 °C. A compound addition program was set up on the ECHO liquid workstation, and the compound was added to the plate using the ECHO liquid workstation. A positive control was prepared using Retigabine (RTG) with a maximum concentration of 100 µM, which was subjected to a 3-fold dilution, resulting in a total of 9 doses constituting the plate map required for plating. Prepare the plate using a stimulation buffer containing 5 mM K^+ and 1 mM Tl^+. Note: 1) K2SO4 and Tl2SO4 were prepared in a 1× chloride-free buffer. When different voltage-gated potassium channels were involved, the concentrations of Tl^+ and K^+ were needed to be adjusted. The concentration of Tl^+ was approximately 0.5 mM to 5 mM, and the concentration of K^+ was approximately 5 mM to 30 mM. 2) Each 1 mM solution of K2SO4 and Tl2SO4 contained 2 mM K^+ and Tl^+. The final concentration should be calculated based on the ion concentrations. 3) TlCl was easily precipitated and a chloride-free buffer was required. • (3) Day 2, assay testing: When the cells reached the confluence degree, the cell analysis plate was taken out from the incubator. The assay buffer was prepared and the Tl^+ dye (Molecular Devices # R8222) was diluted. The culture medium was discarded using the liquid workstation Bravo and 25 µL of Tl^+ dye was added to each well. The plate was incubated for 1 hour, and then the cell analysis plate, composite plate, and FLIPR tip were placed in FLIPR^TETRA (Molecular Devices, USA) for FLIPR assay. The tip was set up, and then the baseline was read for 60 seconds. Then, 12.5 µL from the composite plate (3×) was added to the cell analysis plate, and the data were recorded for at least 5 minutes at the same time. • (4) Data processing: The maximum signal was generated with FLIPR software. Excel (2013) and Prism 6.01 were used for data analysis. The data quality control was performed with S/B > 2.00 and Z-factor > 0.50. IC50 or EC50 was defined as the midline between the lowest and the highest plateaus, and it was calculated using a four-parameter logistic model with Prism 6.01.
Purpose of the assay: To determine the in vitro concentration-response relationship of the compounds in a CHO cell line stably expressing hKCNQ2/3 using FLIPR thallium flux assay. […]

The next data set concerns male CD-1 mice. The experiment in a line: Maximal electroshock-induced epilepsy model, behavioral pharmacodynamics. The data set is classed as in vivo. Conditions: 5 mg/kg orally, one hour before electrical stimulation. From the text:
This study used behavioral tests in male CD-1 mice to investigate the effects of test compounds on acute epileptic seizures behavior induced by maximal electroshock.
Male CD-1 mice (25 to 35g) were used as the experimental animals and fed with standard feed (Beijing Vital River Laboratory Animal Technology Co., Ltd.).
After arriving at the animal facility, the experimental animals needed to acclimatize for at least one week. The mice were observed daily for vital signs, and randomly divided into groups according to their body weights one day before the drug administration. One hour before the electrical stimulation, different dosages of the test compound were orally administered to each group. On the day of the assay, the male CD-1 mice in each group were anesthetized locally at the cornea with 2% lidocaine. Then, silver bipolar electrodes were used to electrically stimulate the cornea of the mice with 18 mA, 60 Hz, a pulse width of 0.6 ms, and a stimulation time of 1 s to induce seizures. Subsequently, the latency of seizures and the duration of limb rigidity in mice after the electrical stimulation were observed, and the protection rate from seizures for each group was statistically analyzed.

The nature of data set [1]: Plasma protein binding rate, equilibrium dialysis (human plasma). The data set is classed as in vitro ADME. Conditions: dialysis 4 hours at 37 °C, read-out: Unbound PPB%. How it is done:
(§1) The protein binding rates of the compounds in the plasma of CD-1 mice, Sprague-Dawley rats, beagle dogs, cynomolgus monkeys, and human were determined using equilibrium dialysis method.
(§2) Commercially available plasma, dual-layer dialysis membrane, and equilibrium dialysis device.
(§3) The dual-layer dialysis membrane was soaked in ultrapure water for about 1 hour, removed and then divided into two parts. It was then soaked in an ethanol:water (20:80, v:v) solution for 20 minutes or placed at 2 to 8 °C, and it was valid for 1 month. Before starting the assay, the dialysis membrane was rinsed twice with ultrapure water and then soaked in ultrapure water for another 20 minutes for later use.
(§4) On the day of assay, the frozen plasma of CD-1 mice, Sprague-Dawley rats, beagle dogs, cynomolgus monkeys, and human was thawed in running cold tap water. After the plasma was completely thawed, the plasma was centrifuged at 3220×g for 5 minutes, and the suspended substances and precipitates in it were removed. The pH of the plasma was determined. The plasma with a pH in the range of 7.4 ± 0.1 was directly used, or the plasma with a pH in the range of 7.4 ± 0.1 after an adjustment with 1% phosphoric acid or 1M sodium hydroxide was used.
(§5) Preparation process of plasma samples: 597 µL of blank plasma from each of the above five species was taken, respectively. 3 µL of a compound or warfarin working solution was added, and the mixture was mixed thoroughly to give a plasma sample with a compound concentration of 2 µM and a warfarin concentration of 2 µM (n=1). The concentration of the organic phase DMSO was 0.5%. The sample was thoroughly mixed before proceeding to the next step.
(§6) Preparation process of T0 samples: 50 µL of a plasma sample containing the compound and warfarin was transferred to a sample receiving plate (n=3), and 50 µL of blank PBS was immediately added. Then, 500 µL of stop solution was added to the T0 sample of the compound and warfarin, and the mixture was stored at 2 to 8 °C, waiting to be processed later together with other dialysis-processed samples.
(§7) Dialysis process of plasma samples: 100 µL of a compound (2 µM) and warfarin (2 µM) plasma sample was added to the donor of each dialysis well (n=3), and 100 µL of blank PBS was added to the corresponding receiver of the dialysis well. The dialysis plate was placed in a 5% CO2 incubator, and incubated at 37 °C with shaking at approximately 100 rpm for 4 hours.
(§8) After the dialysis was completed, 50 µL of dialysis-processed PBS sample and dialysis-processed plasma sample (n=3) were transferred to a new 96-well plate (sample receiving plate). The corresponding volume of the corresponding blank plasma or PBS was added to the sample to make the final volume of each sample well 100 µL, with a plasma to PBS volume ratio of 1:1. All the samples were analyzed by LC-MS/MS after protein precipitation.
(§9) The formulas for calculating the unbound fraction (%Unbound), bound fraction (%Bound) and recovery fraction (%Recovery) of a compound are as follows: %Unbound = 100 ×F / T %Bound = 100 - %Unbound %Recovery = 100 ×(F + T)/ T0 wherein F is the concentration of the compound at the receiver of dialysis; T is the concentration of the compound at the supply end of dialysis; and T0 is the concentration of the compound in the plasma at time zero.
(In general: In equilibrium dialysis free small molecules cross a membrane that holds back macromolecules.)

Data set [2] is described as follows: Plasma protein binding rate, equilibrium dialysis (rat plasma). The data set is classed as in vitro ADME, Sprague-Dawley rats. Conditions: r (Sprague-Dawley rat plasma), dialysis 4 hours at 37 °C, read-out: Unbound PPB%. How it is done: as §1, §2, §3, §4, §5, §6, §7, §8, §9
Data set [3] is described as follows: Plasma protein binding rate, equilibrium dialysis (mouse plasma). Type of data set: in vitro ADME, CD-1 mice. The following applies: m (CD-1 mouse plasma), dialysis 4 hours at 37 °C, read-out: Unbound PPB%. The procedure:
as §1, §2, §3, §4, §5, §6, §7, §8, §9

Data set [4] in a line: Plasma protein binding rate, equilibrium dialysis (dog plasma). The following applies: d (beagle dog plasma), dialysis 4 hours at 37 °C, read-out: Unbound PPB%. The data set is classed as in vitro ADME, beagle dogs. How it is done:
as §1, §2, §3, §4, §5, §6, §7, §8, §9

Data set [5] is described as follows: Plasma protein binding rate, equilibrium dialysis (monkey plasma). Type of data set: in vitro ADME, cynomolgus monkeys. Conditions: c (cynomolgus monkey plasma), dialysis 4 hours at 37 °C, read-out: Unbound PPB%. How it is done:
as §1, §2, §3, §4, §5, §6, §7, §8, §9

T1 sequence (O43525 whole entry): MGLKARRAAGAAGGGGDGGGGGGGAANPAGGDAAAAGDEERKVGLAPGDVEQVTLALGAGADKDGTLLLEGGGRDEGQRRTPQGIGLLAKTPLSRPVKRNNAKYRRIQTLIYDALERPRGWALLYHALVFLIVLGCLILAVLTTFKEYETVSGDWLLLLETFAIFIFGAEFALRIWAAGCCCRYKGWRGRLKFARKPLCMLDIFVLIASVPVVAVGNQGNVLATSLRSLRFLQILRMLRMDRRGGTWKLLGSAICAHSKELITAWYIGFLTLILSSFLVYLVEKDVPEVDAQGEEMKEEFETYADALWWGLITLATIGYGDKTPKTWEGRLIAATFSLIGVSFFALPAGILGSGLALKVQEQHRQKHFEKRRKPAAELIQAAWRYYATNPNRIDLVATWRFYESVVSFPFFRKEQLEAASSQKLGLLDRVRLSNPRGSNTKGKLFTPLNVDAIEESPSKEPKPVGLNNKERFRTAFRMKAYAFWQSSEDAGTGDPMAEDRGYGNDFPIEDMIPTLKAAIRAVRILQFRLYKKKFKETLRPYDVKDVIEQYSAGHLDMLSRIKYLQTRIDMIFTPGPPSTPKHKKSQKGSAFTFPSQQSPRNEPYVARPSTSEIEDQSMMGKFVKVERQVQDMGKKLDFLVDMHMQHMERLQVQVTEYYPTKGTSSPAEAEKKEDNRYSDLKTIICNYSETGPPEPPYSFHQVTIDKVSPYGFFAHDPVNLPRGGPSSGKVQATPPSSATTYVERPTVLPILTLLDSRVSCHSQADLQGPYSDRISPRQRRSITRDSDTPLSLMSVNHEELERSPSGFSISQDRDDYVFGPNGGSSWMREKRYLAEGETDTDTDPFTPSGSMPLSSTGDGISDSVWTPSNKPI
T1 sequence (O43526 whole entry): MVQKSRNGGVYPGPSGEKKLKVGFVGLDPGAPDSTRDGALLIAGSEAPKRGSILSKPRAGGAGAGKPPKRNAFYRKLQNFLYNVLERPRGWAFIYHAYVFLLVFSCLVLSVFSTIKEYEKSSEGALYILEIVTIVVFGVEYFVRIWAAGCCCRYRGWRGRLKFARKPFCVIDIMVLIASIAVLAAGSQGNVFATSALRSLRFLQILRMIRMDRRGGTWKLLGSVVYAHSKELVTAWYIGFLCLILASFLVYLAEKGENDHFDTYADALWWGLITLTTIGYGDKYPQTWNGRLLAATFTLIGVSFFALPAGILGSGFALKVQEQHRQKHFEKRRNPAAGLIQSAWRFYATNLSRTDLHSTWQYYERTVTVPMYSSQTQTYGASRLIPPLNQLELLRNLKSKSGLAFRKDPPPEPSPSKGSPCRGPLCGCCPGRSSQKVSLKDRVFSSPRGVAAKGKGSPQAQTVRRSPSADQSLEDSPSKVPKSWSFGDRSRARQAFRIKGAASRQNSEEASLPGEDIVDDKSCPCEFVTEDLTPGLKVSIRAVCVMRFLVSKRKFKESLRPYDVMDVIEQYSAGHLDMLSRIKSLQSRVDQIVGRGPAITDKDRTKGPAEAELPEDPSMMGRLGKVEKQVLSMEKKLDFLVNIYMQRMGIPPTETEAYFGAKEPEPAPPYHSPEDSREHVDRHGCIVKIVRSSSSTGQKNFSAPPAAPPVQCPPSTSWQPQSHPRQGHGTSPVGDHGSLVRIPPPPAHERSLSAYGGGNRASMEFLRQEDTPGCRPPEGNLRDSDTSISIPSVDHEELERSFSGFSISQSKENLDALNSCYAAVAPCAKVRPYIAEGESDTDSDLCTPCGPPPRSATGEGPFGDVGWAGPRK

For the compound `CC(C)(C)CC(=O)Nc1nc2cc3c(cc2n1C1CCC1)CCC3` [Compound 7], the EC50 (in general, the concentration that produces a half-maximal response) at hKCNQ2/3 came to 420 nM. Besides, in the data set on male CD-1 mice, the “Protection rate from seizures” value was determined as 66.67%. In addition, the fraction unbound at 4 h, 2 µM in data set [1] worked out at 0.004; in data set [2] it was 0.003; in data set [3], 0.003; in data set [4] it was 0.006; in data set [5], 0.012.
`CC(C)(C)CC(=O)Nc1nc2c(F)c3c(cc2n1C1CCC1)CCC3` [Compound 8] gave an EC50 at hKCNQ2/3 of 420 nM. Further, in the data set on male CD-1 mice, the “Protection rate from seizures” value came to 50%.
Regarding `CC(C)(C)CC(=O)Nc1nc2cc3c(cc2n1C1(C)CCC1)CCC3` [Compound 9], the EC50 at hKCNQ2/3 is 160 nM. The “Protection rate from seizures” value with male CD-1 mice turned out to be 50%. Moreover, the fraction unbound at 4 h, 2 µM in data set [1] amounted to 0.003; in data set [2], 0.002; in data set [3], 0.002; in data set [4], 0.004; in data set [5], 0.004.
In turn, `CC(C)(C)CC(=O)Nc1nc2cc3c(cc2n1C(C)(C)C)CCC3` [Compound 10] displayed an EC50 at hKCNQ2/3 of 120 nM. The “Protection rate from seizures” value in the data set with male CD-1 mice is listed as 33.33%.
